From patent US11565005B2, “Dota-hapten compositions for anti-dota/anti-tumor antigen bispecific antibody pretargeted radioimmunotherapy” (MEMORIAL SLOAN KETTERING CANCER CENTER, priority 2017, dated 2023)
Several values for one entry are separate records, joined by “and”; a condition that tells them apart may be missing. Equal entries are not always repeated. Where two headings read alike, the source gives them in different places.

Experiments:
[1] = biological target: anti-DOTA-hapten antibody single chain variable fragment C825; conditions: mean ±SD, read-out: Kd (equilibrium dissociation constant) of C825, cited from earlier work
[2] = system: SW1222 tumor; assay: In vivo competition study: maximum tumor uptake of pretargeted DOTA-hapten; design: species or system mice
Protocol: In addition to studies with tracer doses of radiolabeled Proteus-DOTA, the upper limit for absolute tumor uptake of radiolabeled Proteus-DOTA was determined using in vivo competition studies. Biodistribution experiments were conducted 24 h following dosing of groups of tumor bearing mice with wide mass range of Proteus-DOTA spanning 2 orders of magnitude (˜170-33800 pmol), showing maximum tumor uptake (“Bmax”) of ˜60 pmol DOTA-hapten/gram of SW1222 tumor. […] Based on a maximum tumor uptake of pretargeted Proteus-DOTA of 62 pmol per gram of SW1222 tumor, ˜180 nCi of ^225Ac could be localized per gram of tumor at SA that are currently achieved with quantitative RCY.

[3] = Dynamic PET imaging and ex vivo biodistribution of [^68Ga]Proteus-DOTA in mice bearing NCI-N87 tumors; design: species or system nude mice
Excerpt: Decay-corrected blood and kidney time-activity curves (TAC) are shown for two individual mice. The blood-TAC for each of the animals was separately curve-fitted to a non-linear two phase decay equation. The (i) percent fast, (ii) half life (slow; minutes), (iii) half-life (fast; minutes), and (iv) R^2 values for mouse 1/mouse 2 were: 46/56, 13.2/13.7, 1.4/0.94, and 0.95/0.99, respectively.
PET Imaging and Biodistribution Studies with […]. […] Nude mice bearing HER2-expressing NCI-N87 human gastric carcinoma subcutaneous xenografts (n=4) were injected with 113-140 μCi ([…]) [^68Ga]Proteus-DOTA and imaged with dynamic positron-emission imaging for […] post-injection (p.i.) (n=2), or with static imaging at 1 h p.i. (n=4). All animals were then sacrificed at 2 hours post injection for ex vivo biodistribution analysis. The list-mode data was histogrammed using the following protocol: 12×10 seconds, 6×30 seconds, 5×60 seconds, 4×300 seconds, 30 min, resulting in […]. Regions-of-interest were drawn around heart (for blood as cardiac outflow) and kidney to determine activity concentrations (as % ID/g).

[4] = Blood half-life and biodistribution of [^111In]Proteus-DOTA in tumor-free nude mice; assay type: in vivo, athymic nu/nu female mice
Protocol: The blood half-life of surrogate [^111In] Proteus-DOTA was determined. Dotted line indicates nonlinear two phase decay analysis used to calculate half-life (R^2=0.913). Data is presented as mean ±SD.
(n=5 mice; given i.v.) in tumor-free healthy athymic nu/nu female mice.
Preparation of [^111In]Proteus-DOTA. Using similar radiochemical methods, [^111In]Proteus-DOTA was prepared from [^111In]indium chloride (Nuclear Diagnostic Products, Inc., Rockaway, N.J.; 249 MBq [6.73 mCi]) and 150 μL of 10 mg/mL Proteus-DOTA (1.5 mg; 1.11 μmoles). The [^111In]Proteus-DOTA yield was >98% and the final Specific Activity was 162.8 GBq/g [4.4 Ci/g] or 2.28 E5 GBq/mol [6160 Ci/mol]. This preparation was used for pharmacokinetic studies. Prior to administration into mice, the [^111In]Proteus-DOTA was purified using a Strata™-X cartridge (33 μm Polymeric Reversed Phase C-18 30 mg/l mL #8B-S100-TAK, Phenomenex® Inc., Torrance, Calif. USA) as described for [^68Ga]Proteus-DOTA and the radiochemical purity was verified to be >98% either using an in vitro binding assay with excess BsAb or by analytical reverse-phase HPLC coupled with radiodetection.
A biodistribution assay conducted at 240 min p.i.

[5] = system: GPA33-expressing SW1222 xenografts; conditions: anti-GPA33-DOTA-PRIT, 10-50 pmol, 24 hours p.i.; cited from earlier work
[6] = system: GD2-expressing IMR-32 human neuroblastoma xenografts; assay: Anti-GD2-DOTA-PRIT pretargeting biodistribution, ^225Ac- vs ^177Lu-DOTA-Bn; assay type: in vivo, athymic nude mice; conditions: pretargeted with hu3F8-C825 + clearing agent, 24 hours post-injection
Protocol: Female athymic nude mice bearing subcutaneous GD2-expressing IMR-32 human neuroblastoma xenografts in the right-hand flank were injected intravenously (i.v.) via the lateral tail-vein with three separate reagents: (1) hu3F8-C825 (0.25 mg, 1.19 nmol) [t=−28 hours (h)], followed by (2) 0.1 mg 500 kD-dextran-DOTA-Bn(Y) (0.2 nmol of CA; 146 DOTA-Bn(Y)/mol of dextran, 29 nmol of DOTA-Bn(Y)) [t=−4 h] and (3) an equimolar amount of either ^177Lu- or ^225Ac-DOTA-Bn (50 μCi and 100 μCi of ^177Lu and ^225Ac, respectively, 8-10 pmol) at [t=0 h]. Mice were sacrificed at 24 h post-injection of radiotracer for biodistribution assay of tumor and select normal tissues. The average tumor masses were as follows (presented as average ±SD): 0.77±0.62 g and 0.49±0.28 g for ^177Lu and ^225Ac cohorts, respectively. Activity concentration data are expressed as the mean % ID/g standard error of the mean (SEM). Errors for the tumor-to-tissue ratios are calculated as the geometric mean of the standard errors of the mean. Student's t-test p-values highlighted in bold are considered significant (p<0.05).

[7] = biphasic, nonlinear two phase decay, R^2=0.913

Structure (SMILES): Nc1ccc(CC2CN(CC(=O)[O-])CCN(CC(=O)O)CCN(CC(=O)[O-])CCN2CC(=O)[O-])cc1.[Lu+3] (stereo not drawn) [DOTA-Bn complex of Lu, S-2-(4-aminobenzyl)-1,4,7,10-tetraazacyclododecane tetraacetic acid chelate]
- Kd ([1]; listed as benzyl-DOTA (Lu) hapten): 0.01 nM
- Kd [1]: 0.0108 ± 0.0025 nM

Structure (SMILES): O=C([O-])CN1CCN(CC(=O)[O-])CCN(CC(=O)NCCOCCOCCOCCOCCNC(=S)Nc2ccc(CC3CN(CC(=O)[O-])CCN(CC(=O)[O-])CCN(CC(=O)[O-])CCN3CC(=O)[O-])cc2)CCN(CC(=O)[O-])CC1.[Lu+3] (stereo not drawn) [Proteus-DOTA]
- ^225Ac that could be localized per gram of tumor ([2]; based on 62 pmol per gram at currently achieved SA): ~180 nCi
- maximum tumor uptake ("Bmax") ([2]; pretargeted, 24 h after dosing, ~170-33800 pmol): ~60 pmol DOTA-hapten/gram of SW1222 tumor and 62 pmol DOTA-hapten/gram of SW1222 tumor

Structure (SMILES): O=C([O-])CN1CCN(CC(=O)[O-])CCN(CC(=O)NCCOCCOCCOCCOCCNC(=S)Nc2ccc(CC3CN(CC(=O)[O-])CCN(CC(=O)[O-])CCN(CC(=O)[O-])CCN3CC(=O)[O-])cc2)CCN(CC(=O)[O-])CC1.[68Ga+3].[Lu+3] (stereo not drawn) [[^68Ga]Proteus-DOTA]
- Blood activity concentration ([3]; 2 h p.i., n = 4): 2.29 ± 0.31 % ID/g
- Bone activity concentration ([3]; 2 h p.i., n = 4): 0.39 ± 0.07 % ID/g
- Heart activity concentration ([3]; 2 h p.i., n = 4): 0.75 ± 0.10 % ID/g
- Kidneys activity concentration ([3]; 2 h p.i., n = 4): 1.53 ± 0.50 % ID/g
- Large Intestine activity concentration ([3]; 2 h p.i., n = 4): 0.44 ± 0.10 % ID/g
- Liver activity concentration ([3]; 2 h p.i., n = 4): 1.19 ± 0.08 % ID/g
- Lungs activity concentration ([3]; 2 h p.i., n = 4): 1.00 ± 0.13 % ID/g
- Muscle activity concentration ([3]; 2 h p.i., n = 4): 0.17 ± 0.03 % ID/g
- Small Intestine activity concentration ([3]; 2 h p.i., n = 4): 0.59 ± 0.21 % ID/g
- Spleen activity concentration ([3]; 2 h p.i., n = 4): 0.56 ± 0.13 % ID/g
- Stomach activity concentration ([3]; 2 h p.i., n = 4): 0.19 ± 0.05 % ID/g
- Tumor activity concentration ([3]; NCI-N87 tumor, 2 h p.i., n = 4): 0.65 ± 0.08 % ID/g
- blood half life (slow) ([3]; mouse 1, two phase decay fit): 13.2 min
- blood half-life (fast) ([3]; mouse 1, two phase decay fit): 1.4 min
- blood time-activity curve, percent fast ([3]; mouse 1, two phase decay fit): 46
- blood half life (slow) ([3]; mouse 2, two phase decay fit): 13.7 min
- blood half-life (fast) ([3]; mouse 2, two phase decay fit): 0.94 min
- blood time-activity curve, percent fast ([3]; mouse 2, two phase decay fit): 56

Structure (SMILES): O=C([O-])CN1CCN(CC(=O)[O-])CCN(CC(=O)NCCOCCOCCOCCOCCNC(=S)Nc2ccc(CC3CN(CC(=O)[O-])CCN(CC(=O)[O-])CCN(CC(=O)[O-])CCN3CC(=O)[O-])cc2)CCN(CC(=O)[O-])CC1.[111In+3].[Lu+3] (stereo not drawn) [[^111In]Proteus-DOTA]
- kidney retention (percent injected activity per gram of tissue) ([4]; 240 min p.i., i.v., n=5, mean ±SD): 0.96±0.25 % IA/g
- remaining ^111In-activity in carcass after tissue dissection ([4]; 240 min p.i., n=5, mean ±SD): 0.952±0.162 % ID
- share of alpha phase of blood clearance ([4]; biphasic, nonlinear two phase decay): 87.7%
- blood half-life (alpha) [4, 7]: 7.49 min
- blood half-life (beta) [4, 7]: 24.8 min

Structure (SMILES): Nc1ccc(CC2CN(CC(=O)[O-])CCN(CC(=O)[O-])CCN(CC(=O)[O-])CCN2CC(=O)[O-])cc1.[86Y+3] (stereo not drawn) [^86Y-DOTA-Bn]
- mean tumor uptake [5]: ~8 % ID/g

Structure (SMILES): Nc1ccc(CC2CN(CC(=O)[O-])CCN(CC(=O)[O-])CCN(CC(=O)[O-])CCN2CC(=O)[O-])cc1.[177Lu+3] (stereo not drawn) [^177Lu-DOTA-Bn]
- maximum tumor uptake ([2]; pretargeted, same system, i.v. administered dose of 600 pmol): ~60 pmol/g
- Blood uptake [6]: 0.49±0.09 % ID/g
- kidney uptake [6]: 0.83±0.10 % ID/g
- tumor uptake ([6]; IMR-32 xenograft, n=5): 10.29±2.87 % ID/g
- mean tumor uptake [5]: ~8 % ID/g
